The results in this text go back to patent publication US20250135038A1, “COMPOSITIONS AND METHODS FOR IMPROVED TREATMENT OF POMPE DISEASE” (Astellas Gene Therapies, Inc., priority 2022, published 2025).

The series relates to liver transaminases (ALT, AST) and bilirubin. The series is described as follows: Longitudinal monitoring of liver transaminases (ALT, AST) and bilirubin, relative to prednisolone prophylaxis. Format: in vivo, human. An excerpt: Abbreviations: L, liter; U/L, units per liter; […], upper limit of normal.
Liver transaminases and bilirubin were also monitored over time for patients 2002, 2003, and 2009 (FIG. 11-13).

Molecules are shown by their SMILES.

`C[C@]12C=CC(=O)C=C1CC[C@@H]1[C@@H]2[C@@H](O)C[C@@]2(C)[C@H]1CC[C@]2(O)C(=O)CO` [prednisolone]: the “Prophylaxis of liver syndromes associated with GAA gene therapy” value (combination of the viral vector and an anti-transaminitis agent (e.g., prednisolone), conclusion of Example 1) is “can serve as a prophylactic treatment for liver syndromes”. Further, the “Response of the rise in transaminases to re-initiation of corticosteroid treatment” value (participant 2001, after AAV vector 3×10^13 vg/kg) is reported as “responded well”. For the same molecule, the “Response of transaminitis to steroid schedule” value was “responsive to a slowing in the steroid tapering schedule and a small increment in steroid dose” (participant 2003, after AAV vector 6×10^13 vg/kg); “responsive to a slowing in the steroid tapering schedule” (participant 2009, after AAV vector 6×10^13 vg/kg).
`C[C@]12C=CC(=O)C=C1CC[C@@H]1[C@@H]2C(=O)C[C@@]2(C)[C@H]1CC[C@]2(O)C(=O)CO` [prednisone]: for the setting “Patient 2002 (3×10^13 vg/kg), reduced dose of prophylactic prednisone, throughout steroid tapering and >1 year follow up”, the Liver function parameters result is reported as “remained within the normal range”.
